Laboratory results as given in publication PMC9019904, “AD Informer Set: Chemical tools to facilitate Alzheimer's disease drug discovery” (Alzheimer's & Dementia : Translational Research & Clinical …, 2022).

What was measured:
[1] = system: BV2 (mouse microglia) cell line; experiment: pHrodo-myelin phagocytosis/cell viability high content imaging assay: viability (cell count, nuclear area, nuclear intensity)
Method in brief: (§1)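 Viability was read as total cell count per well by high-content imaging, with mean average nuclear intensity per cell profiling apoptosis (rise early, fall late). Compounds were given at 10 μM for 48 h, pHrodo-myelin being added for the final 20 h. Values are means of two points as % untreated control.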

[2] = system: HMC3 (human microglia) cell line; experiment: as above
Method in brief: as §1

[3] = system: BV2 (mouse microglia) cell line; experiment: pHrodo-myelin phagocytosis/cell viability high content imaging assay: phagocytosis signal; type: cell-based
Method in brief: (§2)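 Simultaneous phagocytosis/viability imaging at approximately 22 h after adding pHrodo-myelin. Rising intensity flagged early apoptosis and falling intensity later apoptosis.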

[4] = system: HMC3 (human microglia) cell line; experiment: as above; type: cell-based
Method in brief: as §2

[5] = BV2 cells, 10 uM compound, 48 hours treatment
[6] = HMC3 cells, 10 uM compound, 48 hours treatment
[7] = BV2 cells, 10 uM compound, 48 hours treatment, pHrodo-myelin final 20 hours
[8] = HMC3 cells, 10 uM compound, 48 hours treatment, pHrodo-myelin final 20 hours
[9] = BV2, compound 10 uM, 48 hours treatment
[10] = HMC3, compound 10 uM, 48 hours treatment
[11] = BV2, compound 10 uM, pHrodo-myelin
[12] = HMC3, compound 10 uM, pHrodo-myelin

Row | Compound | 1. Cell count (% control) [1, 5] [% control] | 2. Nuclear Area (% Control) [1, 5] [% Control] | 3. Nuclear DNA Intensity (% control) [1, 5] [% control] | 1. Cell count (% control) [2, 6] [% control] | 2. Nuclear Area (% Control) [2, 6] [% Control] | 3. Nuclear DNA Intensity (% control) [2, 6] [% control] | 4. Phagocytosis (% control) [3, 7] [% control] | 4. Phagocytosis (% control) [4, 8] [% control] | other results
1 | Cl.NC(=O)c1cnc(N[C@@H]2CCCC[C@@H]2N)nc1Nc1cccc(-n2nccn2)c1 [UNC10302682A] | 28.1 | 80.4 | 42.1 | 54.1 | 63.7 | 181.4 | 0.00121 | 0.13 | 
2 | CC/C(=C(\c1ccccc1)c1ccc(OCCN(C)C)cc1)c1ccccc1 [UNC10101258B] |  |  |  |  |  |  |  |  | 1. Cell count (% control) [1, 9]: 72.9 % control; 2. Nuclear Area (% Control) [1, 9]: 98.7 % Control; 3. Nuclear DNA Intensity (% control) [1, 9]: 95.7 % control; 2. Nuclear Area (% Control) [2, 10]: 95.6 % Control; 3. Nuclear DNA Intensity (% control) [2, 10]: 91.8 % control; 4. Phagocytosis (% control) [3, 11]: 320.1 % control; 4. Phagocytosis (% control) [4, 12]: 72.6 % control
3 | Cn1nccc1Nc1nccc(-c2ccn([C@H](CO)c3ccc(Cl)c(F)c3)c(=O)c2)n1 [UNC8131A] |  |  |  |  |  |  |  |  | 1. Cell count (% control) [1, 9]: 15.3 % control; 2. Nuclear Area (% Control) [1, 9]: 134.5 % Control; 3. Nuclear DNA Intensity (% control) [1, 9]: 44.7 % control; 1. Cell count (% control) [2, 10]: 54.4 % control; 2. Nuclear Area (% Control) [2, 10]: 77.5 % Control; 3. Nuclear DNA Intensity (% control) [2, 10]: 167.5 % control; 4. Phagocytosis (% control) [3, 11]: 0.00107 % control; 4. Phagocytosis (% control) [4, 12]: 12.1 % control
4 | Cl.O=C(O)Cc1cccc(OCCCN(Cc2cccc(C(F)(F)F)c2Cl)CC(c2ccccc2)c2ccccc2)c1 [UNC10302974A] | 123.1 | 107.6 | 102.2 | 138.8 | 100.4 | 95.2 | 136.8 | 78.3 | 
5 | Cc1cc(C)nc(NC(=S)N2CCN(Cc3ccc(C(F)(F)F)cc3)CC2)c1 [UNC10302844A] | 129.8 | 107.6 | 103.9 | 133.1 | 97.8 | 105.3 | 180.4 | 108.4 | 
6 | O=S(=O)(c1ccccc1)N(CC(F)(F)F)c1ccc(C(O)(C(F)(F)F)C(F)(F)F)cc1 [UNC10302875A] | 109.2 | 107.3 | 110.7 | 121.7 | 100.6 | 97.9 | 216.4 | 59.3 | 
7 | CN(C)CCCn1c(N)c(-c2nc3ccccc3[nH]2)c2nc3ccccc3nc21 [UNC10302891A] | 121.8 | 105.7 | 98.0 | 137.9 | 99.6 | 97.0 | 109.5 | 44.4 | 
8 | COCC(=O)O[C@]1(CCN(C)CCCc2nc3ccccc3[nH]2)CCc2cc(F)ccc2[C@@H]1C(C)C.Cl.Cl [UNC10303193A] |  |  |  |  |  |  |  |  | 1. Cell count (% control) [1, 9]: 0.0 % control; 2. Nuclear Area (% Control) [1, 9]: 78.1 % Control; 3. Nuclear DNA Intensity (% control) [1, 9]: 3.8 % control; 1. Cell count (% control) [2, 10]: 77.7 % control; 2. Nuclear Area (% Control) [2, 10]: 77.5 % Control; 3. Nuclear DNA Intensity (% control) [2, 10]: 143.7 % control; 4. Phagocytosis (% control) [3, 11]: 0.0 % control; 4. Phagocytosis (% control) [4, 12]: 9.6 % control
9 | CCN1CCN(Cc2ccc(NC(=O)c3ccc(C)c(NC(=O)c4cncc(-c5cccs5)c4)c3)cc2C(F)(F)F)CC1 [UNC10303158A] |  |  |  |  |  |  |  |  | 1. Cell count (% control) [1, 9]: 10.2 % control; 2. Nuclear Area (% Control) [1, 9]: 124.4 % Control; 3. Nuclear DNA Intensity (% control) [1, 9]: 45.5 % control; 1. Cell count (% control) [2, 10]: 36.9 % control; 2. Nuclear Area (% Control) [2, 10]: 59.1 % Control; 3. Nuclear DNA Intensity (% control) [2, 10]: 194.1 % control; 4. Phagocytosis (% control) [3, 11]: 0.0043 % control; 4. Phagocytosis (% control) [4, 12]: 0.0256 % control
10 | O=C(Nc1ccc2[nH]nc(-c3ccncc3)c2c1)[C@@H]1CCN(CC(=O)N2CCN(c3ccc(-c4ncccn4)cc3)CC2)C1 [UNC10302854A] | 43.5 | 114.7 | 111.9 | 103.4 | 110.6 | 94.1 | 359.5 | 37.1 | 
11 | C=C1[C@@H](C)[C@H]2[C@H](Cc3ccccc3)NC(=O)[C@]23[C@H](OC(C)=O)/C=C/[C@@](C)(O)C(=O)[C@@H](C)C/C=C/[C@H]3[C@@H]1O [Cytochalasin-D] |  |  |  |  |  |  |  |  | 1. Cell count (% control) ([1]; BV2, control compound at 4uM): 9.1 % control; 2. Nuclear Area (% Control) ([1]; BV2, control compound at 4uM): 119.3 % Control; 3. Nuclear DNA Intensity (% control) ([1]; BV2, control compound at 4uM): 141.3 % control; 1. Cell count (% control) ([2]; HMC3, control compound at 4uM): 57.1 % control; 2. Nuclear Area (% Control) ([2]; HMC3, control compound at 4uM): 76.9 % Control; 3. Nuclear DNA Intensity (% control) ([2]; HMC3, control compound at 4uM): 178.9 % control; 4. Phagocytosis (% control) ([3]; BV2, control compound at 4uM, pHrodo-myelin): 18.4 % control; 4. Phagocytosis (% control) ([4]; HMC3, control compound at 4uM, pHrodo-myelin): 4.8 % control
12 | O=c1[nH]c(=O)n([C@H]2C[C@H](O)[C@@H](CO)O2)cc1/C=C/Br [UNC10100235A] | 94.9 | 117.1 | 94.6 | 104.1 | 100.7 | 100.8 | 118.4 | 83.2 | 
13 | CC(C)Nc1cc(-c2c[nH]c(C(=O)N[C@H](CO)c3cccc(Cl)c3)c2)c(Cl)cn1 [UNC10302869A] | 44.0 | 125.5 | 96.6 | 116.3 | 105.5 | 89.1 | 222.2 | 59.0 | 
14 | CS[C@@]1(C(=O)Nc2ccc3[nH]nc(-c4ccc(OC(C)C)nc4)c3c2)CCN(CC(=O)N2CC=C(c3ccc(-c4ncn(C)n4)cc3)CC2)C1 [UNC10302902A] | 54.0 | 110.5 | 112.2 | 113.2 | 96.5 | 97.1 | 339.1 | 45.1 | 
